Laboratory results reported in patent US10570129B2 (Zoetis Services LLC, priority 2015, dated 2020).

How the values were obtained:
Haemonchus contortus L3 = test: microbe, parasite or virus in culture; type: cell-based; details: Haemonchus contortus, 96 h, read-out: HcL3 Minimal Effective Concentration (MEC)
[1] = test system: Trichostrongylus colubriformis; test: Jird efficacy model; type: in vivo; details: Trichostrongylus colubriformis, sc, 96 h, read-out: Jird % (percentage efficacy)
D. immitis microfilariae = test: Dirofilaria immitis, microfilariae (DiMF) in vitro motility assay; type: cell-based; details: Dirofilaria immitis, 72 h, read-out: DiMF minimally effective dose (MEC)

O=C(NCc1ccnc(F)c1)n1c2c(c3cc(C(F)(F)F)ccc31)CN(C/C=C/c1ccc(Cl)cc1)CC2 [Example 421, (E)-2-(3-(4-chlorophenyl)allyl)-N-((2-fluoropyridin-4-yl)methyl)-8-(trifluoromethyl)-1,2,3,4-tetrahydro-5H-pyrido[4,3-b]indole-5-carboxamide]
minimal effective concentration (Haemonchus contortus L3): 3.3 µM | inhibition in vivo at 10 mg/kg [1]: 100% | minimal effective concentration (D. immitis microfilariae): 12.7 µM

O=C(NCc1ccnc(Cl)c1)n1c2c(c3c(Br)cccc31)CN(C/C=C/c1ccc(Cl)cc1)CC2 [Example 444, (E)-9-bromo-2-(3-(4-chlorophenyl)allyl)-N-((2-chloropyridin-4-yl)methyl)-1,2,3,4-tetrahydro-5H-pyrido[4,3-b]indole-5-carboxamide]
minimal effective concentration (Haemonchus contortus L3): 0.7 µM | inhibition in vivo at 10 mg/kg [1]: 100% | minimal effective concentration (D. immitis microfilariae): 2.4 µM

CS(=O)(=O)c1ccc2c(c1)c1c(n2C(=O)NCc2ccnc(Cl)c2)CCN(C/C=C/c2ccc(F)cc2)C1 [Example 459, (E)-N-((2-chloropyridin-4-yl)methyl)-2-(3-(4-fluorophenyl)allyl)-8-(methylsulfonyl)-1,2,3,4-tetrahydro-5H-pyrido[4,3-b]indole-5-carboxamide]
minimal effective concentration (Haemonchus contortus L3): 1 µM | inhibition in vivo at 10 mg/kg [1]: 92% | minimal effective concentration (D. immitis microfilariae): 5.7 µM

N#Cc1ccc(/C=C/CN2CCc3c(c4cc(F)c(OC(F)(F)F)cc4n3C(=O)NCc3ccnc(Cl)c3)C2)cc1 [Example 470, (E)-N-((2-chloropyridin-4-yl)methyl)-2-(3-(4-cyanophenyl)allyl)-8-fluoro-7-(trifluoromethoxy)-1,2,3,4-tetrahydro-5H-pyrido[4,3-b]indole-5-carboxamide]
minimal effective concentration (Haemonchus contortus L3): 1 µM | inhibition in vivo at 10 mg/kg [1]: 100% | minimal effective concentration (D. immitis microfilariae): 13.5 µM

O=C(NCc1ccnc(Cl)c1)n1c2c(c3cc4c(cc31)COC4)CN(C/C=C/c1ccc(F)cc1)CC2 [Example 481, (E)-N-((2-chloropyridin-4-yl)methyl)-8-(3-(4-fluorophenyl)allyl)-1,3,6,7,8,9-hexahydro-5H-furo[3,4-f]pyrido[4,3-b]indole-5-carboxamide]
minimal effective concentration (Haemonchus contortus L3): 0.3 µM | inhibition in vivo at 10 mg/kg [1]: 99% | minimal effective concentration (D. immitis microfilariae): 3.3 µM

O=C(NCc1ccnc(F)c1)n1c2c(c3cc4c(cc31)COC4)CN(C/C=C/c1ccc(Cl)cc1)CC2 [Example 483, (E)-8-(3-(4-chlorophenyl)allyl)-N-((2-fluoropyridin-4-yl)methyl)-1,3,6,7,8,9-hexahydro-5H-furo[3,4-f]pyrido[4,3-b]indole-5-carboxamide]
minimal effective concentration (Haemonchus contortus L3): 0.5 µM | inhibition in vivo at 10 mg/kg [1]: 100% | minimal effective concentration (D. immitis microfilariae): 3.3 µM

O=C(NCc1cnc(Cl)s1)n1c2c(c3cc4c(cc31)COC4)CN(C/C=C/c1ccc(Cl)cc1)CC2 [Example 489, (E)-8-(3-(4-chlorophenyl)allyl)-N-((2-chlorothiazol-5-yl)methyl)-1,3,6,7,8,9-hexahydro-5H-furo[3,4-f]pyrido[4,3-b]indole-5-carboxamide]
minimal effective concentration (Haemonchus contortus L3): 3.3 µM | inhibition in vivo at 10 mg/kg [1]: 100% | minimal effective concentration (D. immitis microfilariae): 3.3 µM

O=C(NCc1ccnc(Cl)c1)n1c2c(c3cc(N4CCOCC4)ccc31)CN(C/C=C/c1ccc(Cl)c(F)c1)CC2 [Example 504, (E)-2-(3-(4-chloro-3-fluorophenyl)allyl)-N-((2-chloropyridin-4-yl)methyl)-8-morpholino-1,2,3,4-tetrahydro-5H-pyrido[4,3-b]indole-5-carboxamide]
minimal effective concentration (Haemonchus contortus L3): 5.7 µM | inhibition in vivo at 10 mg/kg [1]: 100% | minimal effective concentration (D. immitis microfilariae): 10 µM

O=C(NCc1ccnc(Cl)c1)n1c2c(c3cc(N4CCOCC4)ccc31)CN(C/C=C/c1ccc(Cl)cc1)CC2 [Example 505, (E)-2-(3-(4-chlorophenyl)allyl)-N-((2-chloropyridin-4-yl)methyl)-8-morpholino-1,2,3,4-tetrahydro-5H-pyrido[4,3-b]indole-5-carboxamide]
minimal effective concentration (Haemonchus contortus L3): 10 µM | inhibition in vivo at 10 mg/kg [1]: 100% | minimal effective concentration (D. immitis microfilariae): 13.5 µM
